pIC50: −log10 of the molar value.
Tests used:
Syk = target: T1, Syk (Homo sapiens, UniProt P43405); test: In vitro Syk kinase activity measured by trFRET; format: biochemical; conditions: Syk catalytic domain, 0.001 mM ATP
T1 construct: Purified Syk catalytic domain (aa 356-635 with a C-terminal His-tag purified in-house); His-tag (C); made in house
Protocol: In Vitro Syk Kinase Activity Measured by Time-Resolved Fluorescence Resonance Energy Transfer (trFRET)
After about 60 min incubation at rt, the reaction was quenched by addition of EDTA (final concentration: 100 mM) and developed by addition of revelation reagents (final approximate concentrations: 30 mM HEPES pH 7.0, 0.06% BSA, 0.006% Tween-20, 0.24 M KF, 80 ng/mL PT66K (europium labeled anti-phosphotyrosine antibody cat #61T66KLB Cisbio, Bedford, Mass.) and 0.6 μg/mL SAXL (Phycolink streptavidin-allophycocyanin acceptor, cat #PJ25S, Prozyme, San Leandro, Calif.). The developed reaction was incubated in the dark either at about 4° C. for about 14 h or for about 60 min at rt, then read via a time-resolved fluorescence detector (Rubystar, BMG) using a 337 nm laser for excitation and monitoring emission wavelengths at 665 nm. Within the linear range of the assay, the observed signal at 665 nm was directly related to phosphorylated product and can be used to calculate the IC50 values.

[1] = patients in clinical trials; cited from earlier work

Compound | pIC50 (Syk) | risk for hypertension [1]
CC(=O)N1C[C@H](O)C[C@@H]1c1nc(-c2ccc(C3CCOCC3)cc2)c2cnc3[nH]ccc3n12 [F.1.18, 1-((2R,4R)-4-hydroxy-2-(3-(4-(tetrahydro-2H-pyran-4-yl)phenyl)-6H-imidazo[1,5-a]pyrrolo[2,3-e]pyrazin-1-yl)pyrrolidin-1-yl)ethanone] | > 8.00 | 
CC(=O)N1C[C@H](O)C[C@@H]1c1nc(-c2ccc(N3CCOCC3)cc2)c2cnc3[nH]ccc3n12 [F.1.17, 1-((2R,4R)-4-hydroxy-2-(3-(4-morpholinophenyl)-6H-imidazo[1,5-a]pyrrolo[2,3-e]pyrazin-1-yl)pyrrolidin-1-yl)ethanone] | > 8.00 | 
CC(=O)N1C[C@H](O)C[C@@H]1c1nc(-c2ccc(C(F)(F)F)cc2)c2cnc3[nH]ccc3n12 [Example #A.1.4, 1-((2R,4R)-4-hydroxy-2-(3-(4-(trifluoromethyl)phenyl)-6H-imidazo[1,5-a]pyrrolo[2,3-e]pyrazin-1-yl)pyrrolidin-1-yl)ethanone] | 7.00 to 7.52 | 
COc1ccc(-c2nc([C@H]3C[C@@H](O)CN3C(C)=O)n3c2cnc2[nH]ccc23)cc1OC [F.1.20, 1-((2R,4R)-2-(3-(3,4-dimethoxyphenyl)-6H-imidazo[1,5-a]pyrrolo[2,3-e]pyrazin-1-yl)-4-hydroxypyrrolidin-1-yl)ethanone] | > 8.00 | 
CCOc1ccc(-c2nc([C@H]3C[C@@H](O)CN3C(C)=O)n3c2cnc2[nH]cc(Cl)c23)cc1 [F.1.11, 1-((2R,4R)-2-(8-chloro-3-(4-ethoxyphenyl)-6H-imidazo[1,5-a]pyrrolo[2,3-e]pyrazin-1-yl)-4-hydroxypyrrolidin-1-yl)ethanone] | 7.52 to 8.00 | 
CCOc1ccc(-c2nc([C@H]3C[C@@H](O)CN3C(C)=O)n3c2cnc2[nH]ccc23)cc1C [F.1.28, 1-((2R,4R)-2-(3-(4-ethoxy-3-methylphenyl)-6H-imidazo[1,5-a]pyrrolo[2,3-e]pyrazin-1-yl)-4-hydroxypyrrolidin-1-yl)ethanone] | > 8.00 | 
COc1ccc(-c2nc([C@H]3C[C@@H](O)CN3C(C)=O)n3c2cnc2[nH]ccc23)s1 [Example #3, 1-((2R,4R)-4-Hydroxy-2-(3-(5-methoxythiophen-2-yl)-6H-imidazo[1,5-a]pyrrolo[2,3-e]pyrazin-1-yl)pyrrolidin-1-yl)ethanone] | 7.52 to 8.00 | 
CC(=O)N1C[C@H](O)C[C@@H]1c1nc(-c2ccc3c(c2)NCCC3)c2cnc3[nH]ccc3n12 [F.1.30, 1-((2R,4R)-4-hydroxy-2-(3-(1,2,3,4-tetrahydroquinolin-7-yl)-6H-imidazo[1,5-a]pyrrolo[2,3-e]pyrazin-1-yl)pyrrolidin-1-yl)ethanone] | 7.52 to 8.00 | 
COc1ccc(-c2nc([C@H]3C[C@@H](O)CN3C(=O)CF)n3c2cnc2[nH]ccc23)cc1 [E.1.1] | 7.52 to 8.00 | 
CC(=O)N1C[C@H](O)C[C@@H]1c1nc(-c2ccc(N3CCOC(C)C3)cc2)c2cnc3[nH]ccc3n12 (stereo partly drawn) [F.1.7, 1-((2R,4R)-4-hydroxy-2-(3-(4-(2-methylmorpholino)phenyl)-6H-imidazo[1,5-a]pyrrolo[2,3-e]pyrazin-1-yl)pyrrolidin-1-yl)ethanone] | > 8.00 | 
CC(=O)N1C[C@H](O)C[C@@H]1c1nc(-c2ccc(OC(C)C)cc2)c2cnc3[nH]ccc3n12 [F.1.23, 1-((2R,4R)-4-hydroxy-2-(3-(4-isopropoxyphenyl)-6H-imidazo[1,5-a]pyrrolo[2,3-e]pyrazin-1-yl)pyrrolidin-1-yl)ethanone] | 7.52 to 8.00 | 
COc1ccc(-c2nc([C@H]3C[C@@H](O)CN3C(C)=O)n3c2cnc2[nH]ccc23)cc1 [Example #F.1.4, 1-((2R,4R)-4-hydroxy-2-(3-(4-methoxyphenyl)-6H-imidazo[1,5-a]pyrrolo[2,3-e]pyrazin-1-yl)pyrrolidin-1-yl)ethanone] | 7.52 to 8.00 | 
CC(=O)N1C[C@H](O)C[C@@H]1c1nc(-c2ccc(C3(O)CCC3)cc2)c2cnc3[nH]ccc3n12 [F.1.27, 1-((2R,4R)-4-hydroxy-2-(3-(4-(1-hydroxycyclobutyl)phenyl)-6H-imidazo[1,5-a]pyrrolo[2,3-e]pyrazin-1-yl)pyrrolidin-1-yl)ethanone] | 7.52 to 8.00 | 
CC(=O)N1C[C@H](O)C[C@@H]1c1nc(-c2ccc(C(C)(C)O)cc2)c2cnc3[nH]ccc3n12 [F.1.15, 1-((2R,4R)-4-hydroxy-2-(3-(4-(2-hydroxypropan-2-yl)phenyl)-6H-imidazo[1,5-a]pyrrolo[2,3-e]pyrazin-1-yl)pyrrolidin-1-yl)ethanone] | > 8.00 | 
CC(=O)N1C[C@H](O)C[C@@H]1c1nc(-c2ccc(N3CCC(F)(F)CC3)cc2)c2cnc3[nH]ccc3n12 [F.1.8, 1-((2R,4R)-2-(3-(4-(4,4-difluoropiperidin-1-yl)phenyl)-6H-imidazo[1,5-a]pyrrolo[2,3-e]pyrazin-1-yl)-4-hydroxypyrrolidin-1-yl)ethanone] | > 8.00 | 
CC(=O)N1C[C@H](O)C[C@@H]1c1nc(-c2ccc(N3CCO[C@@H](C)C3)cc2)c2cnc3[nH]ccc3n12 [Example #5 (S), 1-((2R,4R)-4-Hydroxy-2-(3-(4-((S)-2-methylmorpholino)phenyl)-6H-imidazo[1,5-a]pyrrolo[2,3-e]pyrazin-1-yl)pyrrolidin-1-yl)ethanone] | > 8.00 | 
CC(=O)N1C[C@H](O)C[C@@H]1c1nc(-c2ccc(OC3CC3)cc2)c2cnc3[nH]ccc3n12 [F.1.31] | 7.52 to 8.00 | 
CC(=O)N1C[C@H](O)C[C@@H]1c1nc(-c2ccc(N3CC(F)(F)C3)cc2)c2cnc3[nH]ccc3n12 [F.1.9, 1-((2R,4R)-2-(3-(4-(3,3-difluoroazetidin-1-yl)phenyl)-6H-imidazo[1,5-a]pyrrolo[2,3-e]pyrazin-1-yl)-4-hydroxypyrrolidin-1-yl)ethanone] | > 8.00 | 
CCN(CC)CCNC(=O)c1c(C)[nH]c(/C=C2\C(=O)Nc3ccc(F)cc32)c1C [sunitibnib, sunitinib] |  | increased risk for hypertension
CC(=O)N1C[C@H](O)C[C@@H]1c1nc(-c2ccsc2)c2cnc3[nH]ccc3n12 [A.1.1] | 7.52 to 8.00 | 
CC(=O)N1C[C@H](O)C[C@@H]1c1nc(-c2ccc(Cn3nccn3)cc2)c2cnc3[nH]ccc3n12 [Example #8, 1-((2R,4R)-2-(3-(4-((2H-1,2,3-Triazol-2-yl)methyl)phenyl)-6H-imidazo[1,5-a]pyrrolo[2,3-e]pyrazin-1-yl)-4-hydroxypyrrolidin-1-yl)ethanone] | 7.00 to 7.52 | 
(2R,4R)-2-(3-(chroman-6-yl)-6H-imidazo[1,5-a]pyrrolo[2,3-e]pyrazin-1-yl)-4-hydroxypyrrolidine-1-carboxamide [Example #6] | 7.52 to 8.00 | 
CC(=O)N1C[C@H](O)C[C@@H]1c1nc(-c2cnc(C(C)(C)C)s2)c2cnc3[nH]ccc3n12 [Example #4, 1-((2R,4R)-2-(3-(2-(tert-Butyl)thiazol-5-yl)-6H-imidazo[1,5-a]pyrrolo[2,3-e]pyrazin-1-yl)-4-hydroxypyrrolidin-1-yl)ethanone] | 7.00 to 7.52 | 
CC(=O)N1C[C@H](O)C[C@@H]1c1nc(-c2ccc(OCC(F)(F)F)cc2)c2cnc3[nH]ccc3n12 [Example #9, 1-((2R,4R)-4-Hydroxy-2-(3-(4-(2,2,2-trifluoroethoxy)phenyl)-6H-imidazo[1,5-a]pyrrolo[2,3-e]pyrazin-1-yl)pyrrolidin-1-yl)ethanone] | 7.00 to 7.52 | 
CC(=O)N1C[C@H](O)C[C@@H]1c1nc(-c2csc(CO)c2)c2cnc3[nH]ccc3n12 [D.1.2, 1-((2R,4R)-4-hydroxy-2-(3-(5-(hydroxymethyl)thiophen-3-yl)-6H-imidazo[1,5-a]pyrrolo[2,3-e]pyrazin-1-yl)pyrrolidin-1-yl)ethanone] | 7.52 to 8.00 | 
